Test results as given in patent US11406628B2, “Sustained-release triptan compositions and method of use the same through subdermal route or the like” (Taiwan Liposome Co., Ltd, priority 2017, dated 2022).
Like-named read-outs stand apart in the source and are kept apart here.

Experiments:
[1] = test system: patients; settings: within 24 hours or 48 hours of initial symptom resolution; cited from earlier work
[2] = human, cited from earlier work
[3] = female rats, cited from earlier work; for Cmax/dose: normalization using sumatriptan succinate dosage
[4] = Pharmacokinetic study of liposomal sumatriptan in rats after single subcutaneous administration
Description: Jugular vein cannulated (JVC) female Sprague-Dawley rats (7-9 weeks) were used for a pharmacokinetic (PK) study. The rats were housed in a holding room which operates on a 12-hour light/12-hour dark circadian cycle with free access (ad libitum) to water and food.
Blood samples were collected at 2, 4, 8, 24, 48 and 72 hours post-injection. Plasma samples were obtained by centrifugation and then dimethyl sulfoxide was added to the plasma samples at a final concentration of 5% (v/v) for storing the samples at −80° C. until analysis. One-hundred microliters of each sample were subject to separation of sumatriptan by a Strata C18-E tube to obtain the sumatriptan fraction and sumatriptan concentration was determined employing LC-MS/MS methods.
The unformulated sumatriptan injection was prepared by dissolving the sumatriptan tartrate in ultrapure water at 2 mg/mL. The in vivo PK profiles of the rats (n=3) administrated with unformulated sumatriptan following subcutaneous injection at the dosage of 3 mg/kg of sumatriptan tartrate were compared to the PK profiles of the rats administered 10 mg/kg of sumatriptan from the liposomal sumatriptan formulation. Blood samples were collected at 15 mins, 0.5, 1, 2, 4, 6 and 8 hours post-injection. Plasma samples were obtained by centrifugation and were kept frozen at −80° C. until analysis.
FIG. 1 depicts the mean sumatriptan concentration versus time curve over 72 hours post-injection. Table 2 provides a summary of the PK parameters which were obtained using a noncompartmental model within the PKSolver program.

[5] = unformulated 3 mg/kg, liposomal 10 mg/kg

CNS(=O)(=O)Cc1ccc2[nH]cc(CCN(C)C)c2c1 [sumatriptan]
migraine recurrence rate [1]: about 40% | half-life (t1/2) ([2]; 6 mg subcutaneous injection): 2 h | half-life (t1/2) ([2]; 20 mg intranasal administration): 1.8 h | half-life (t1/2) ([2]; 100 mg oral tablet): 2 h | half-life (t1/2) ([2]; irrespective of route of administration): approximately 2 hours | time to reach maximum plasma concentration ([2]; subcutaneous injection): approximately 10 minutes | t1/2 ([3]; intranasal administration): 3.6 h | Cmax/dose ([3]; intranasal): 0.025 µg/mL | t1/2 ([3]; intravenous administration): 1.1 h | Cmax/dose ([3]; intravenous): 0.5086 µg/mL

sumatriptan tartrate [Unformulated Sumatriptan]
AUC0-t/dose ([4]; dose-normalized): 226.9 | Cmax/dose ([4]; dose-normalized): 138 | AUC0-inf [4, 5]: 0.6874 µg·h/mL | AUC0-t [4, 5]: 0.6806 µg·h/mL | Cmax [4, 5]: 0.414 µg/mL | t1/2 [4, 5]: 1.1 h
